Results reported in ChEMBL document CHEMBL1157938, “Cytotoxicity and inhibition of DNA topoisomerase I of polyhydroxylated triterpenoids and triterpenoid glycosides” (Bioorg Med Chem Lett, 2010).
Active and inactive are the calls of the source. The rule behind the calls is not given here.

How the values were obtained:
MRC5 = test: Cytotoxicity against human MRC5 cells at 25 uM after 48 hrs by WST8 assay; assay type: cell-based; conditions: mrc5, 48 h
A549 = test: Cytotoxicity against human A549 cells at 25 uM after 48 hrs by WST8 assay; assay type: functional, cell-based
PC-3 = test: Cytotoxicity against human PC3 cells at 25 uM after 48 hrs by WST8 assay; assay type: functional, cell-based
HL-60 = test: Cytotoxicity against human HL60 cells at 25 uM after 48 hrs by WST8 assay; assay type: functional, cell-based
PANC-1 = test: Cytotoxicity against human PANC1 cells at 25 uM after 48 hrs by WST8 assay; assay type: functional, cell-based
[1] = target: DNA topoisomerase 2-alpha (Homo sapiens, UniProt P11388); test: Inhibition of human DNA topoisomerase 2-mediated relaxation of supercoiled DNA by gel electrophoresis
DNA topoisomerase 1 = target: T1, DNA topoisomerase 1 (Homo sapiens, UniProt P11387); test: Inhibition of human DNA topoisomerase 1-mediated relaxation of supercoiled DNA by gel electrophoresis
T1 sequence (P11387 whole entry): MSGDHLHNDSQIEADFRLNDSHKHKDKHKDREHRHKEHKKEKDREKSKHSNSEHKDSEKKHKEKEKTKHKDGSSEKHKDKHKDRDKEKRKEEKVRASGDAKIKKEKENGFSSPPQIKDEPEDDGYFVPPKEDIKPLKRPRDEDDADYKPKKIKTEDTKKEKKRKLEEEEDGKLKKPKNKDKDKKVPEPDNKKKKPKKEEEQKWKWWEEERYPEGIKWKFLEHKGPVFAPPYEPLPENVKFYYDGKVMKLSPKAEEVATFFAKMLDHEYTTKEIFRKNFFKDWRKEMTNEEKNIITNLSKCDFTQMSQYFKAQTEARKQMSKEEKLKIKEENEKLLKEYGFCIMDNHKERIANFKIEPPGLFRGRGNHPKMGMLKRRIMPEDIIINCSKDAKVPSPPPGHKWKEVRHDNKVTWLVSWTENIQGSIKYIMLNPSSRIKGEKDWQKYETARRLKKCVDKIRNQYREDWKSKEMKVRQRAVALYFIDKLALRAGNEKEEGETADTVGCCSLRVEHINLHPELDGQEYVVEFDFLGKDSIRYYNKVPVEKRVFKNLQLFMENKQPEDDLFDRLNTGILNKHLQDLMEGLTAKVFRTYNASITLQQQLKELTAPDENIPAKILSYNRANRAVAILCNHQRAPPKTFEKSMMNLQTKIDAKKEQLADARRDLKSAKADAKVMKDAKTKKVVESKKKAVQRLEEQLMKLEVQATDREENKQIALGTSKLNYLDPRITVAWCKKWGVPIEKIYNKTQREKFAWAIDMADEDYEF

Chain of DNA topoisomerase 2-alpha (P11388 whole entry): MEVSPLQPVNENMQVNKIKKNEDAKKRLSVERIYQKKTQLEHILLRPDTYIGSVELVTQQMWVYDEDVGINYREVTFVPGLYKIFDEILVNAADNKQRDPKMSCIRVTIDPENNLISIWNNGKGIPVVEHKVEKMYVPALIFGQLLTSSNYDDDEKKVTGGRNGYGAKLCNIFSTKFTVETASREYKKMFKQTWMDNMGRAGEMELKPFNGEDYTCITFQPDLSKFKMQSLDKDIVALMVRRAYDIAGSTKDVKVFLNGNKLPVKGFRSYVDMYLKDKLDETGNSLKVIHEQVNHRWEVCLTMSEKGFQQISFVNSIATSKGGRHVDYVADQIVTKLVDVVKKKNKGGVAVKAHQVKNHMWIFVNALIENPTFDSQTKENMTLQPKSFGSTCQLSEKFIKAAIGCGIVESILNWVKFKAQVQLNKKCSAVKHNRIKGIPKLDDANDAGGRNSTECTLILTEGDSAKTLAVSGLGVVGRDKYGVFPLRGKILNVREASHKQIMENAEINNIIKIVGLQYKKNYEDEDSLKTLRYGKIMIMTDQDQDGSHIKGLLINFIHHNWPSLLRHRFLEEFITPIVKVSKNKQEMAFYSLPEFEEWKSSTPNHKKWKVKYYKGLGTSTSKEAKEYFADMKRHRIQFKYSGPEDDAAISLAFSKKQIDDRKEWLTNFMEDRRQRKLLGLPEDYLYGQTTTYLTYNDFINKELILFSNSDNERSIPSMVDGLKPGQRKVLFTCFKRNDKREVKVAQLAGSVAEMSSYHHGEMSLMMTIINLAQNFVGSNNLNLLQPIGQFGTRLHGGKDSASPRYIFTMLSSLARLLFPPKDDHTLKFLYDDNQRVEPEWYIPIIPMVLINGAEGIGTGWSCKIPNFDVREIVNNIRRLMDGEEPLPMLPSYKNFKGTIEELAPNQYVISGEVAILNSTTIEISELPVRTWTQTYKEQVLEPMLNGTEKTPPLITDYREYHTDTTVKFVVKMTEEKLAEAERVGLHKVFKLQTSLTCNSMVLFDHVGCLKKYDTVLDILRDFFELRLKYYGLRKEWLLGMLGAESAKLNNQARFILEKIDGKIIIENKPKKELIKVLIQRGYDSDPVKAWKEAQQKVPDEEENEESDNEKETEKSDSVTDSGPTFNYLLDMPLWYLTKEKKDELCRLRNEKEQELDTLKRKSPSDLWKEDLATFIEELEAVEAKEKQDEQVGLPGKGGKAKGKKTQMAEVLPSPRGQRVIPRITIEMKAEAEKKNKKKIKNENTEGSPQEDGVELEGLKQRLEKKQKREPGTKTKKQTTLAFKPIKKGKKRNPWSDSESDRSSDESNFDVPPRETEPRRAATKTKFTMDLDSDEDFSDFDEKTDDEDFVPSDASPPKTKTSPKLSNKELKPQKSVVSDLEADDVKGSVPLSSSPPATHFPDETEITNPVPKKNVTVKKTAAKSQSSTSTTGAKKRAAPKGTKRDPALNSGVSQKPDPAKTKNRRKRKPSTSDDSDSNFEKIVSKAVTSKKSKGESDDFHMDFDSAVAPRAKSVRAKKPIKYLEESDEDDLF

SMILES	growth inhibition (GI) (MRC5)	growth inhibition (GI) (A549)	growth inhibition (GI) (PC-3)	growth inhibition (GI) (HL-60)	growth inhibition (GI) (PANC-1)	IC50 [1]	IC50 (DNA topoisomerase 1)
C[C@@H]1O[C@H](O[C@H]2CC[C@]3(C)[C@H]4CC=C5[C@@H]6CC(C)(C)CC[C@]6(C(=O)O[C@@H]6O[C@H](CO)[C@@H](O)[C@H](O)[C@H]6O)CC[C@@]5(C(=O)O)[C@]4(C)CC[C@H]3C2(C)C)[C@@H](O)[C@H](O)[C@H]1O	Not Active	inactive	inactive	inactive	inactive	–	–
C[C@@H]1O[C@H](O[C@@H]2[C@@H](O)[C@H](O[C@H]3CC[C@]4(C)[C@H]5CC=C6[C@@H]7CC(C)(C)CC[C@]7(C(=O)O[C@@H]7O[C@H](CO)[C@@H](O)[C@H](O)[C@H]7O)CC[C@@]6(C)[C@]5(C)CC[C@H]4C3(C)C)O[C@H](C(=O)O)[C@H]2O)[C@H](O)[C@H](O)[C@H]1O	Not Active	inactive	inactive	inactive	inactive	–	–
CC1(C)C[C@H]2C3=CC[C@@H]4[C@@]5(C)CC[C@H](O[C@@H]6O[C@H](C(=O)O)[C@@H](O)[C@H](O[C@@H]7O[C@@H](CO)[C@H](O)[C@H]7O)[C@H]6O[C@@H]6O[C@H](CO)[C@H](O)[C@H](O)[C@H]6O)C(C)(C)[C@@H]5CC[C@@]4(C)[C@]3(C)[C@@H](O)[C@@H](O)[C@@]2(CO)[C@@H](O)[C@@H]1O [AESCULIOSIDE IA]	Not Active	inactive	inactive	inactive	inactive	–	–
CC1(C)C[C@H]2C3=CC[C@@H]4[C@@]5(C)CC[C@H](O[C@@H]6O[C@H](C(=O)O)[C@@H](O)[C@H](O[C@@H]7O[C@@H](CO)[C@H](O)[C@H]7O)[C@H]6O[C@@H]6O[C@H](CO)[C@@H](O)[C@H](O)[C@H]6O)[C@](C)(CO)[C@@H]5CC[C@@]4(C)[C@]3(C)[C@@H](O)[C@@H](O)[C@@]2(CO)[C@@H](O)[C@@H]1O [AESCULIOSIDE IB]	Not Active	inactive	inactive	inactive	inactive	–	–
CC1(C)C[C@H]2C3=CC[C@@H]4[C@@]5(C)CC[C@H](O[C@@H]6O[C@H](C(=O)O)[C@@H](O)[C@H](O[C@@H]7O[C@@H](CO)[C@H](O)[C@H]7O)[C@H]6O[C@@H]6O[C@H](CO)[C@H](O)[C@H](O)[C@H]6O)C(C)(C)[C@@H]5CC[C@@]4(C)[C@]3(C)C[C@@H](O)[C@@]2(CO)[C@@H](O)[C@@H]1O [AESCULIOSIDE IC]	Not Active	inactive	inactive	inactive	inactive	–	–
CC1(C)C[C@H]2C3=CC[C@@H]4[C@@]5(C)CC[C@H](O[C@@H]6O[C@H](C(=O)O)[C@@H](O)[C@H](O[C@@H]7O[C@@H](CO)[C@H](O)[C@H]7O)[C@H]6O[C@@H]6O[C@H](CO)[C@@H](O)[C@H](O)[C@H]6O)[C@](C)(CO)[C@@H]5CC[C@@]4(C)[C@]3(C)C[C@@H](O)[C@@]2(CO)[C@@H](O)[C@@H]1O [AESCULIOSIDE ID]	Not Active	inactive	inactive	inactive	inactive	–	–
CC1(C)C[C@H]2C3=CC[C@@H]4[C@@]5(C)CC[C@H](O[C@@H]6O[C@H](C(=O)O)[C@@H](O)[C@H](O[C@@H]7O[C@@H](CO)[C@H](O)[C@H]7O)[C@H]6O)[C@](C)(CO)[C@@H]5CC[C@@]4(C)[C@]3(C)C[C@@H](O)[C@@]2(CO)[C@@H](O)[C@@H]1O [AESCULIOSIDE IE]	Not Active	inactive	inactive	inactive	inactive	–	–
CC(C)=CCC[C@](C)(O[C@@H]1O[C@H](CO[C@@H]2O[C@H](CO)[C@@H](O)[C@H](O)[C@H]2O)[C@@H](O)[C@H](O)[C@H]1O)[C@H]1CC[C@]2(C)[C@@H]1[C@H](O)C[C@@H]1[C@@]3(C)CC[C@H](O[C@@H]4O[C@H](CO)[C@@H](O)[C@H](O)[C@H]4O[C@@H]4O[C@H](CO)[C@@H](O)[C@H](O)[C@H]4O)C(C)(C)[C@@H]3CC[C@]12C [GINSENOSIDE RB1]	–	inactive	inactive	inactive	inactive	> 250 µM	> 250 µM
CC(C)=CCC[C@](C)(O[C@@H]1O[C@H](CO[C@@H]2OC[C@@H](O)[C@H](O)[C@H]2O)[C@@H](O)[C@H](O)[C@H]1O)[C@H]1CC[C@]2(C)[C@@H]1[C@H](O)C[C@@H]1[C@@]3(C)CC[C@H](O[C@@H]4O[C@H](CO)[C@@H](O)[C@H](O)[C@H]4O[C@@H]4O[C@H](CO)[C@@H](O)[C@H](O)[C@H]4O)C(C)(C)[C@@H]3CC[C@]12C [GINSENOSIDE RB3]	–	inactive	inactive	inactive	inactive	> 250 µM	> 250 µM
CC(C)=CCC[C@](C)(O[C@@H]1O[C@H](CO)[C@@H](O)[C@H](O)[C@H]1O)[C@H]1CC[C@]2(C)[C@@H]1[C@H](O)C[C@@H]1[C@@]3(C)CC[C@H](O[C@@H]4O[C@H](CO)[C@@H](O)[C@H](O)[C@H]4O[C@@H]4O[C@H](CO)[C@@H](O)[C@H](O)[C@H]4O)C(C)(C)[C@@H]3CC[C@]12C [GINSENOSIDE RD]	–	inactive	inactive	inactive	inactive	> 250 µM	> 250 µM
CC(C)=CCC[C@](C)(O[C@@H]1O[C@H](CO)[C@@H](O)[C@H](O)[C@H]1O)[C@H]1CC[C@]2(C)[C@@H]1[C@H](O)C[C@@H]1[C@@]3(C)CC[C@H](O)C(C)(C)[C@@H]3[C@@H](O[C@@H]3O[C@H](CO)[C@@H](O)[C@H](O)[C@H]3O[C@@H]3O[C@@H](C)[C@H](O)[C@@H](O)[C@H]3O)C[C@]12C [GINSENOSIDE RE]	–	inactive	inactive	inactive	inactive	> 250 µM	> 250 µM
CC(C)=CCC[C@](C)(O[C@@H]1O[C@H](CO[C@@H]2O[C@H](CO)[C@@H](O)[C@H](O)[C@H]2O)[C@@H](O)[C@H](O)[C@H]1O)[C@H]1CC[C@]2(C)[C@@H]1[C@H](O)C[C@@H]1[C@@]3(C)CC[C@H](O[C@@H]4O[C@H](CO)[C@@H](O)[C@H](O)[C@H]4O)C(C)(C)[C@@H]3CC[C@]12C [GYPENOSIDE XVII]	–	inactive	inactive	inactive	inactive	> 250 µM	> 250 µM
